The values below come from US20140072662A1, “Andrographis Paniculata Compositions and Methods for Treatment of Addictions” (Omeros Corporation, priority 2012, published 2014).

Series [1] deals with msP rats. Description: Yohimbine-induced reinstatement of alcohol seeking in msP rats. Format: in vivo, rat. The following applies: yohimbine 1.25 mg/kg i.p.; p<0.001. The protocol:
The study was conducted using standard operant chambers (Med Associate, St Albans, Vt.) located in sound-attenuating, ventilated environmental cubicles. Each chamber was equipped with a drinking reservoir (volume capacity: 0.30 ml) positioned 4 cm above the grid floor in the centre of the front panel of the chamber, and two retractable levers located 3 cm to the right or to the left of the drinking receptacle. Auditory and visual stimuli were presented via a speaker and a light located on the front panel. A microcomputer controlled the delivery of fluids, presentation of auditory and visual stimuli, and recording of the behavioral data.
During the first 6 days of training, rats were allowed to lever-press for a 10% (v/v) alcohol solution containing 0.2% (w/v) saccharin solution, on a FR-1 schedule. In the following days, msP rats were trained to self-administer 10% alcohol solution (v/v) on a FR-1, time out 5 second (TO 5 s.) schedule of reinforcement. The TO period was signalled by illumination of a white house light above the right lever for 5 s. 10% (v/v) alcohol self-administration continued until stable baseline of responding was achieved.
After the last alcohol self-administration session, animals were subjected to 30-min extinction sessions. […]

Another series has as its system Wistar rats. The experiment in a line: Yohimbine-induced reinstatement of nicotine seeking in Wistar rats. Format: in vivo, rat. The following applies: yohimbine 1.25 mg/kg IP; p<0.001. The protocol: Animals are anesthetized by intramuscular injection of 100-150 μl of a solution containing tiletamine cloridrate (58.17 mg/ml) and zolazepam cloridrate (57.5 mg/ml). For IV surgery, incisions are made to expose the right jugular vein. A catheter made from micro-renathane tubing (I.D.=0.020 inches, O.D.=0.037 inches) is subcutaneously positioned between the vein and the back. After insertion into the vein, the proximal end of the catheter is anchored to the muscles underlying the vein with surgical silk. The distal end of the catheter is attached to a stainless-steel cannula bent at a 90° angle. The cannula is inserted in a support made by dental cement on the back of the animals covered with a plastic cap. […] Body weights are monitored every day and catheter patency is confirmed approximately every 3 days with an injection of 0.2-0.3 ml of thiopental sodium (250 mg/ml) solution. […]
The day after the last extinction session, in a within subject counterbalanced design animals are given Andrographis Paniculata extract OS at the doses of 0, 150; 450 mg/kg, given 1 hour prior to administration of yohimbine (1.25 mg/kg) or its vehicle. 30 minutes following the administration of yohimbine, animals (N=15) are placed in the self-administration apparatus, and lever pressesis recorded for 2 hours. […]

The subject of series [2] is msP rats. Description: Two-bottle choice paradigm, voluntary 10% alcohol intake in msP rats. The series is classed as in vivo, rat. The following applies: 3 days. The source says: Male genetically selected alcohol-preferring rats were used. They were bred at the Department of Experimental Medicine and Public Health of the University of Camerino (Marche, Italy) for 64 generations from Sardinian alcohol-preferring (sP) rats of the 13th generation, provided by the Department of Neurosciences of the University of Cagliari (Colombo et al, 2006). They are referred to as Marchigian sP (msP) rats (Ciccocioppo et al, 2006). At the time of the experiments their body weight ranged between 300 and 350 g. They were kept in single cages in a room with a reverse 12:12 h light/dark cycle (lights off at 9:30 a.m.), temperature of 20-22° C. and humidity of 45-55%. […]
A widely used method for testing fluid preference is the two-bottle choice paradigm, in which water and 10% (v/v) alcohol solution were offered in graduated drinking tubes equipped with metallic drinking spouts and their consumption was measured by reading the volume consumed from the graduated tubes. Food intake was measured by weighing the food containers and taking into account spillage. Alcohol, water and food intakes are expressed as g/kg to reduce the influence of differences in body weight. […]
Alcohol, water and food intake were monitored daily at 0.5, 2, 8 and 24 hours. For all the experiments performed, intakes were recorded for several additional days after the end of the drug treatment period. […]

The subject of series [3] is msP rats. Description: Central PPAR antagonist GW9662 on andrographolide-induced reduction of alcohol intake in msP rats. As to conditions: andrographolide 10 mg/kg, 6 consecutive days; 2, 8 and 24 hours. The series is classed as in vivo, rat. The protocol: GW9662, purchased from Tocris (Bristol, UK), was dissolved in 10% DMSO and 3% Tween 80 and the final volume (5 μg/μl) was adjusted adding distilled water. GW9662 was injected ICV in a volume of 1 μl per rat by means of a stainless-steel injector 2.5 mm longer than the guide cannula, so that its tip protruded into the ventricle.
A 22-gauge guide cannula for intracerebroventricular (ICV) drug injections was stereotaxically implanted into the lateral cerebroventricle with the following coordinates: anteroposterior (AP)=1.0; lateral (L)=1.8; ventral (V)=2.0 with reference to bregma.
A widely used method for testing fluid preference is the two-bottle choice paradigm, in which water and 10% (v/v) alcohol solution were offered in graduated drinking tubes equipped with metallic drinking spouts and their consumption was measured by reading the volume consumed from the graduated tubes. Food intake was measured by weighing the food containers and taking into account spillage. Alcohol, water and food intakes are expressed as g/kg to reduce the influence of differences in body weight.
To examine whether the effect of andrographolide on alcohol intake is mediated by brain PPAR receptors, another group of msP rats (N=31) was treated ICV with 5 μg/rat of the PPAR antagonist GW9662 and then injected with andrographolide (10 mg/kg) or its vehicle. In a between-subject design each group of animals (N=7-8/group) received a different drug dose for 6 consecutive days. GW9662 or its vehicle were administered twice daily at 12 hours and 30 minutes before the beginning of the dark period of the light-dark cycle. Andrographolide was given immediately after GW9662 administrations.
Alcohol, water, and food intake was recorded at 0.5, 2, 8 and 24 hours from the moment that alcohol was made available.

The conditions of series [4]: in vivo, cited from earlier work.
The conditions of series [5]: cited from earlier work.
The conditions of series [6]: clinical study; cited from earlier work.
Series [7] deals with rat model of cerebral ischemia. The following applies: in vivo; cited from earlier work.
The test system of series [8] is LPS-stimulated macrophages. As to conditions: cited from earlier work.

As for `COC(=O)[C@@H]1[C@H]2C[C@H]3c4[nH]c5ccccc5c4CCN3C[C@@H]2CC[C@@H]1O` [yohimbine], the “reinstatement of operant response for alcohol vs extinction” value in the series with msP rats [1] is listed as “significantly reinstated the operant response for alcohol”. Further, the “reinstatement of responding for nicotine vs extinction” value with Wistar rats is “significant reinstatement of responding”.

Consider `C=C1CC[C@@H]2[C@](C)(CO)[C@H](O)CC[C@@]2(C)[C@@H]1C/C=C1/C(=O)OC[C@H]1O` [andrographolide], for which the voluntary alcohol intake result with msP rats [2] (andrographolide 5 mg/kg i.p. twice daily) was “a statistical difference from controls was observed the last day of treatment for all the time points”; in the series with msP rats [2] (andrographolide 10 mg/kg i.p. twice daily (12 h and 30 min before dark period)), “the effect appeared from the second day of treatment (Day 3) and remained significant throughout the treatment period”. Also, the alcohol drinking entry in the series on msP rats [3] was “reduced alcohol consumption starting from the second day and for the entire duration of treatment”. Further, the oral bioavailability entry in series [4] (po) is given as “low”. Also, in series [4], the “binding to plasma proteins” value is “high”. For the same compound, the aqueous solubility entry in series [5] was “low”. In series [6], the “ability to cross the brain-blood barrier” value was “cross the brain-blood barrier”. Besides, the neuroprotective effects entry in series [7] was “clear neuroprotective effects”. The “production of TNF-α, IL-1β and IL-12” value in series [8] is recorded as “inhibits”.
